≈ marks a conversion by molar mass, not a printed value. Read-outs that look alike come from different tables or passages of the source.
What was measured:
guinea-pig gallbladder = assay: Anti-CCK activity on guinea-pig gallbladders in vitro (contraction by CCK-8); details: Cavia porcellus; CCK-8 10 ng/ml; in vitro
Experimental: ANTI-CCK ACTIVITY ON GUINEA-PIG GALLBLADDERS IN VITRO A longitudinal strip of guinea-pig gallbladder is placed in a bath for isolated organs in Krebs at a temperature of 32° C. and oxygenated continuously with an oxygen-CO2 mixture (95-[…]). The isometric contractions were detected by means of a force transducer and recorded. […] The results obtained are shown in Table 3 which gives the compounds tested and the IC50 values found which were calculated by the method of regression in a test of at least three experiments for each compound studied.

guinea pig gall bladders = assay: Anti-CCK-8 activity on guinea-pig gallbladders in situ (in vivo); details: Cavia porcellus, iv; CCK-8 10 ng/kg i.v.; compound i.v.; read-out: ID50, anti-CCK-8 activity in situ
Experimental: In order to confirm the evidence of the studies in vitro, several of the more interesting compounds were tested in vivo with the use of guinea-pig gallbladders in situ.
The method used was that described by Ljungberg (Svensk. Farm. Tidskr. 69, 351-354, 1964).
Guinea-pigs having a weight of about 400 g anaesthetised with urethane were used; the substances being tested were administered intravenously (i.v.) into the jugular vein.
The responses of the gallbladder to the substances being tested were detected by means of a force transducer and recorded by means of a microdynamometer. 10 ng/kg of CCK 8 were chosen as the optimum contracting dose. The antagonistic compounds tested were administered in increasing doses so as to enable the calculation of an ID50 value, that is the dose (in mg/kg i.v.) having a 50% inhibiting effect against contractions induced by 10 ng/kg i.v. of CCK-8.

digestive tract = assay: Antispastic activity, vegetable carbon test (speed of transit through stomach and intestine) in mice; assay type: in vivo; details: Mus musculus, ip, read-out: A[…] ED50 (dose which reduces the intestinal transit time of the carbon by 50%), intraperitoneally
Excerpt: The anti-spastic activity which the present compounds exert on the whole of the digestive tract is also considerable. Measured in mice with the vegetable carbon test (speed of transit through the stomach and intestine) this activity is illustrated in the following table: […]

colon of rabbits = assay: Antispastic activity in the colon of rabbits stimulated with CCK-8; assay type: in vivo, rabbit; design: Antispastic activity in colon, EXPERIMENT 1 / Antispastic activity in colon, EXPERIMENT 2: unit not given here; details: CCK 100 ng/kg
Experimental: The abdomen of anaesthetised rabbit is cut open to display the tranverse colon. A small balloon full of water is inserted at an established point and connected to a pressure transducer by means of a polyethylene cannula filled with H2 O.
The optimum sensitivity being fixed in relation to the physiological contractions, the products were administered through the femeral vein. Contractions were induced by the administration of 100 ng/kg of CCK.

[1] = test system: pancreatitis in mice induced experimentally by cerulein; assay: Pancreatitis induced by cerulein in mice; assay type: in vivo; details: for ED50: Mus musculus, ip, cerulein, mice
Experimental: Adult male mice received six injections of cerulein (Takus) (50 mcg/kg) each hour for six hours.
The compound was administered 30 minutes before each administration of cerulein. Nine hours after the beginning of the treatment, the blood was taken from the rectro-orbitory plexus after anaesthesia with ether, the animals were killed and the pancreas removed and weighed.

[2] = test system: pancreatitis in rats induced experimentally by taurocholate; assay: Pancreatitis induced by sodium taurocolate in rats; assay type: in vivo; details: for ED50: Rattus norvegicus, ip, taurocholate, rats
Experimental: The products under examination were administered intraperitoneally (i.p.) 30 minutes before the operation and 3 hours after the operation. Six hours after the laparatomy the blood was removed from the retro-orbitory plexus after anaesthesia with ether, the animals were killed and the pancreas was removed and weighed. The activity of the serum amylase was determined by the method described above.

[3] = Food consumption in rats treated daily by mouth for three weeks; assay type: in vivo
Experimental: (§1) The following tables give the average values of the food consumption and the average weight of each group of animals calculated weekly as well as the Student t value calculated between the various groups treated and the group of control animals. […] Each group received the drug (compound 1) in the doses indicated for three weeks daily by mouth. The drug in the form of the sodium salt was dissolved in water and administered in a volume of 10 ml of H2 O/kg while the control group received an equal volume of the solvent alone.

[4] = Body weight of rats treated daily by mouth for three weeks; assay type: in vivo
Experimental: as §1

normal pancreatic cells = assay: Action on growth rate of normal pancreas induced by CCK-8 in hamsters; assay type: in vivo
Excerpt: (§2) Male hamsters were innoculated in the cheek pouch with a suspension of 1×10^5 tumour cells of a pancreatic adenocarcinoma.
(§3) Fifteen days after this treatment the animals were killed and the normal pancreas and the pancreatic tumours initiated in the cheek pouch were removed and weighed.
(§4) The DNA was extracted and measured by conventional methods.
(§5) The results obtained are given in Table 11 in which they are expressed as average values±S.E.

[5] = test system: pancreatic adenocarcinoma; assay: Inhibiting action on rate of growth of a pancreatic adenocarcinoma induced by CCK-8 in hamsters; assay type: in vivo
Excerpt: as §2, §3, §4, §5

[6] = in vivo, sc
[7] = Tolerability in parenteral administration; details: i.v. sodium salt in water up to 1.5 percent, 10 ml/kg (150 mg/kg)
[8] = compound 1 4 mg/kg + CCK-8 8 mcg/kg

CCCCCN(CCCOC)C(=O)C(CCC(=O)O)NC(=O)c1ccc(Cl)c(Cl)c1 (racemic) [Compound 1]
IC50 (guinea-pig gallbladder): 0.1 µg/mL (≈ 0.217 µM) | ED50 (guinea pig gall bladders): 0.11 mg/kg | ED50 (digestive tract): 12.8 mg/kg | Antispastic activity in colon, EXPERIMENT 1 (colon of rabbits; 0.3 mg/kg i.v.): -20.8 | Antispastic activity in colon, EXPERIMENT 2 (colon of rabbits; 0.3 mg/kg i.v.): -34.1 | Antispastic activity in colon, EXPERIMENT 1 (colon of rabbits; 1 mg/kg i.v.): -48.9 | Antispastic activity in colon, EXPERIMENT 2 (colon of rabbits; 1 mg/kg i.v.): -55.6 | Antispastic activity in colon, EXPERIMENT 1 (colon of rabbits; 3 mg/kg i.v.): -100.0 | Antispastic activity in colon, EXPERIMENT 2 (colon of rabbits; 3 mg/kg i.v.): -87.8 | ED50 (colon of rabbits; Oryctolagus cuniculus, iv): 1.24 mg/kg | AMYLASE IN THE SERUM ([1]; 5 mg/kg ip + cerulein): 29.4 U/ml | INHIBITION OF WEIGHT INCREASE ([1]; 5 mg/kg ip + cerulein): 76.9% | INHIBITION OF WEIGHT INCREASE (pancreas) ([1]; 5 mg/kg ip + cerulein): 42.8% | AMYLASE IN THE SERUM ([1]; 7.5 mg/kg ip + cerulein): 25.6 U/ml | INHIBITION OF WEIGHT INCREASE ([1]; 7.5 mg/kg ip + cerulein): 81.6% | INHIBITION OF WEIGHT INCREASE (pancreas) ([1]; 7.5 mg/kg ip + cerulein): 71.4% | AMYLASE IN THE SERUM ([1]; 10 mg/kg ip + cerulein): 13.2 U/ml | INHIBITION OF WEIGHT INCREASE ([1]; 10 mg/kg ip + cerulein): 97.1% | INHIBITION OF WEIGHT INCREASE (pancreas) ([1]; 10 mg/kg ip + cerulein): 90.5% | ED50 ([1]; read-out: ED50 (inhibition of weight increase)): 4.2 mg/kg | ED50 ([1]; read-out: ED50, inhibition of weight increase of the pancreas): 5.5 mg/kg | AMYLASE IN THE SERUM ([2]; 5 mg/kg i.p. + taurocholate): 10.4 U/ml | INHIBITION OF AMYLASE INCREASE ([2]; 5 mg/kg i.p. + taurocholate): 47.0% | INHIBITION OF WEIGHT INCREASE ([2]; 5 mg/kg i.p. + taurocholate): 46.1% | AMYLASE IN THE SERUM ([2]; 10 mg/kg i.p. + taurocholate): 9.8 U/ml | INHIBITION OF AMYLASE INCREASE ([2]; 10 mg/kg i.p. + taurocholate): 64.7% | INHIBITION OF WEIGHT INCREASE ([2]; 10 mg/kg i.p. + taurocholate): 84.6% | AMYLASE IN THE SERUM ([2]; 20 mg/kg i.p. + taurocholate): 7.8 U/ml | INHIBITION OF AMYLASE INCREASE ([2]; 20 mg/kg i.p. + taurocholate): 123.5% | INHIBITION OF WEIGHT INCREASE ([2]; 20 mg/kg i.p. + taurocholate): 107.7% | ED50 ([2]; read-out: ED50, inhibition of amylase increase): 7.3 mg/kg | ED50 ([2]; read-out: ED50, inhibition of weight increase): 6.9 mg/kg | increase in the food consumption compared with the controls ([3]; 0.625 mg/kg daily): about 20% | Food consumption ([3]; 0.625 mg/kg os, 1st week): 187.1 ± 6.3 g/week | Food consumption ([3]; 0.625 mg/kg os, 2nd week): 220 ± 3.9 g/week | Food consumption ([3]; 0.625 mg/kg os, 3rd week): 242.5 ± 3.3 g/week | Food consumption ([3]; 1.25 mg/kg os, 1st week): 205 ± 4.6 g/week | Food consumption ([3]; 1.25 mg/kg os, 2nd week): 217.5 ± 3.8 g/week | Food consumption ([3]; 1.25 mg/kg os, 3rd week): 253.5 ± 2.4 g/week | Food consumption ([3]; 2.5 mg/kg os, 1st week): 209.2 ± 3.3 g/week | Food consumption ([3]; 2.5 mg/kg os, 2nd week): 222.2 ± 2.6 g/week | Food consumption ([3]; 2.5 mg/kg os, 3rd week): 270.7 ± 4.5 g/week | increase in the food consumption compared with the controls ([3]; other doses tested (1.25, 2.5 mg/kg)): about 30% | body weight ([4]; 0.625 mg/kg os, 1st week): 216.9 ± 3.8 g | body weight ([4]; 0.625 mg/kg os, 2nd week): 267.5 ± 3.9 g | body weight ([4]; 0.625 mg/kg os, 3rd week): 324 ± 3.6 g | body weight ([4]; 0.625 mg/kg os, time 0): 169.3 ± 1.9 g | body weight ([4]; 1.25 mg/kg os, 1st week): 242.7 ± 4.9 g | body weight ([4]; 1.25 mg/kg os, 2nd week): 318.3 ± 4.4 g | body weight ([4]; 1.25 mg/kg os, 3rd week): 371 ± 5.6 g | body weight ([4]; 1.25 mg/kg os, time 0): 168.3 ± 1.1 g | body weight ([4]; 2.5 mg/kg os, 1st week): 241.6 ± 3.7 g | body weight ([4]; 2.5 mg/kg os, 2nd week): 325.2 ± 5.5 g | body weight ([4]; 2.5 mg/kg os, 3rd week): 374.9 ± 5.1 g | body weight ([4]; 2.5 mg/kg os, time 0): 165.8 ± 1.3 g | weight increase compared with control animals ([4]; all treated groups, from the first week, in words): significantly higher weight increase than the control animals | PANCREATIC DNA (normal pancreatic cells; 4 mg/kg i.p. three times a day): 0.78 ± 0.03 mg | WEIGHT OF THE PANCREAS (normal pancreatic cells; 4 mg/kg i.p. three times a day): 351.2 ± 17.2 mg | PANCREATIC DNA (normal pancreatic cells; [8]): 0.83 ± 0.06 mg | WEIGHT OF THE PANCREAS (normal pancreatic cells; [8]): 370.2 ± 12.7 mg | effect on normal pancreatic cells (normal pancreatic cells; in words): atagonises both these actions of CCK-8 to a highly significant extent | TUMORAL DNA ([5]; 4 mg/kg i.p. three times a day): 0.42 | WEIGHT OF THE PANCREATIC CARCINOMA ([5]; 4 mg/kg i.p. three times a day): 105.0 ± 4.1 mg | TUMORAL DNA [5, 8]: 0.44 | WEIGHT OF THE PANCREATIC CARCINOMA [5, 8]: 108.8 ± 5.4 mg | effect on growth of a pancreatic adenocarcinoma ([5]; in words): atagonises both these actions of CCK-8 to a highly significant extent | tissue damage [6]: does not moreover give rise to tissue damage | haemolysis [7]: without causing haemolysis

From patent US4769389A, “Oxygenated-alkyl derivatives of glutamic and aspartic acids with antagonistic activity to bio-active polypeptides and a method for their preparation” (priority 1985, dated 1988)
